Measured values: paper PMC12062363, “Phytochemical analysis and neuroprotective potential of Achillea santolina L. fractions” (Scientific Reports, 2025)

Assays:
COX-2 enzyme = molecular target: T1, COX-2 enzyme (Homo sapiens, UniProt P35354); test: biochemical; assay type: biochemical; conditions: three replicates
T1 sequence (P35354 18-604): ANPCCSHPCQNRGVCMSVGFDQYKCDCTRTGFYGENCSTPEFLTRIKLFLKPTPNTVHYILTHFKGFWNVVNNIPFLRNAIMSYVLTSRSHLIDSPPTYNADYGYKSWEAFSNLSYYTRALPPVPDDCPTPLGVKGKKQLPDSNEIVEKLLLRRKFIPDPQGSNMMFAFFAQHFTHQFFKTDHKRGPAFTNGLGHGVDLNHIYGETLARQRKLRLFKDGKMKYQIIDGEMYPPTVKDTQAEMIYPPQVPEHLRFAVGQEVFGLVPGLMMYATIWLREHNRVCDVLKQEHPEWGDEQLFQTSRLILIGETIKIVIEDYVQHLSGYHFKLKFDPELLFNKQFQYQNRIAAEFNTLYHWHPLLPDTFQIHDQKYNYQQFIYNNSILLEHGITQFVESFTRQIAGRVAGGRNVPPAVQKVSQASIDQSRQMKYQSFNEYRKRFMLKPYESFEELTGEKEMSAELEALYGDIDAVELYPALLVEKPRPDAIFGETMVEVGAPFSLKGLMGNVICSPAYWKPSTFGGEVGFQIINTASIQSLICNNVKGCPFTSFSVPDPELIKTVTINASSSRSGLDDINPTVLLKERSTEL
Protocol: All in vitro determinations were performed in triplicate and reported as mean ± standard deviation. The IC50 values were determined by transforming the concentrations to logarithmic form and applying a non-linear regression equation for inhibitors (log inhibitor) versus the normalized response-variable slope equation. In vitro studies were analyzed using one-way ANOVA and Tukey’s test, with p values under < 0.05 regarded as significant. […] All figures and statistical analyses were generated with GraphPad Prism version 8.0® for Windows (GraphPad Software, San Diego, California USA).
The inhibitory activity of the tested samples against COX-2 enzyme was determined colorimetrically ^6. Celecoxib was used as a reference drug.

5-LOX = molecular target: T2, 5-LOX (Homo sapiens, UniProt P09917); test: In vitro lipoxygenase (5-LOX) inhibitory activity; assay type: biochemical; conditions: three replicates
T2 sequence (P09917 1-674): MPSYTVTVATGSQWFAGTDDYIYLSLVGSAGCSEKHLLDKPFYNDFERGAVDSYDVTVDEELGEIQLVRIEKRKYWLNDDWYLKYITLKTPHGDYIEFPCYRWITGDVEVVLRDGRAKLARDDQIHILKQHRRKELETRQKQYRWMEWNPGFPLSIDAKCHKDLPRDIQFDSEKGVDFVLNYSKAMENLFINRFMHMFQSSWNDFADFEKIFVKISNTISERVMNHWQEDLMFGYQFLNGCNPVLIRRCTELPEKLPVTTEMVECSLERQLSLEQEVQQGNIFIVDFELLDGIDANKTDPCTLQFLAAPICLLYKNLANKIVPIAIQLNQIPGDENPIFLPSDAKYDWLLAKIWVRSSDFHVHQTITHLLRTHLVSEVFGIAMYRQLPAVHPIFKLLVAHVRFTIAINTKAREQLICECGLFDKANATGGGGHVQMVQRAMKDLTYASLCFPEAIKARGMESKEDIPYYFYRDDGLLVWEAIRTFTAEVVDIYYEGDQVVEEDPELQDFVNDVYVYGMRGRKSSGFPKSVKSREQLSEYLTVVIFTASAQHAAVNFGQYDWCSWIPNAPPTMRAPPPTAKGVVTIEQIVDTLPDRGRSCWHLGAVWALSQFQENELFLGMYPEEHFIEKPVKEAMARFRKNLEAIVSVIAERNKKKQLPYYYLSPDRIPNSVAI
Protocol: All in vitro determinations were performed in triplicate and reported as mean ± standard deviation. The IC50 values were determined by transforming the concentrations to logarithmic form and applying a non-linear regression equation for inhibitors (log inhibitor) versus the normalized response-variable slope equation. […] All figures and statistical analyses were generated with GraphPad Prism version 8.0® for Windows (GraphPad Software, San Diego, California USA).
The 5-LOX inhibitory activity was determined according to a previous method ^7. […] The IC50 of each tested sample was calculated.

[1] = test system: cerebral cortex and hippocampus of MSG-treated rats; test: Brain histopathology (H&E) in MSG-induced neurotoxicity in rats; assay type: in vivo, Wistar rats; conditions: standard 30 mg/kg orally, 14 days
Protocol: One day post the last dose, rats were anesthetized using ketamine 90 mg i.p and Blood was drawn from the Orbital sinus[22] followed by euthanizing of all rats[22]. […] The whole brains were expunged, washed with cold saline, wiped with filter paper, and split into two portions(hemispheres): one hemisphere was used for histopathological examinations following formalin fixation, however the other hemisphere was snap-frozen in liquid nitrogen and kept at − 80 °C to be used for biochemical assessment (MDA, GSH and TNF-α) and for RNA extraction. Samples were assayed in triplicates[2].
Brain specimens were preserved in 10% neutral buffered formalin followed by processing in increasing concentrations of ethanol and xylene. […]

[2] = test system: Tumor necrosis factor alpha; test: TNF-α immunohistochemistry in cerebral cortex, MSG-induced neurotoxicity in rats; assay type: in vivo, Wistar rats; conditions: standard 30 mg/kg orally, 14 days
Protocol: Sixty-three rats were randomly allocated into nine experimental groups (n = 7): Control Group; served as negative control that received distilled water (DW) at the volume of 1 ml/rat orally via an intragastric tube once a day for 14 days. MSG Group, served as control positive where rats received DW at the volume of 0.5 mL/rats orally + 2 g/kg weight MSG dissolved in normal saline at the volume of 0.5 mL/rats orally via an intragastric tube once a day for 14 days[21]. Treated groups received MSG same way as MSG group along with various treatments as following: AS 200, 400 Groups; received Achillea santolina methanolic extract at doses of 200, 400 mg/kg, respectively. MF 200,400; received methylene chloride fraction of Achillea santolina extract with the same two doses and volume suspended in DW, BF 200, 400 received butanol fraction of Achillea santolina extract with the same two doses and volume suspended in DW, and standard group (Std): received Dextromethorphan 30 mg/kg at the volume of 0.5 mL/rats orally.
Tumor necrosis factor alpha was detected in paraffin embedded tissue by immunoperoxidase technique. Briefly, tissue sections were deparaffinized and then incubated in citrate buffer PH 6 for antigen retrieval. […] Area percent of positive staining was measured by Image J software in 3 sections/ group at 200X magnification.

`O=c1cc(-c2ccc(O)cc2)oc2cc(O)c([C@@H]3O[C@H](CO)[C@@H](O)[C@H](O)[C@H]3O)c(O)c12` [Isovitexin, Apigenin 6-C-β-glucopyranoside] was tested, and the “COX-2 inhibitory activity IC50” value (COX-2 enzyme) was “most powerful” and the “5-LOX inhibitory potential IC50” value (5-LOX) was “highest inhibitory potential”.

In the case of `O=c1c(O[C@@H]2O[C@H](CO)[C@@H](O)[C@H](O)[C@H]2O)c(-c2ccc(O)cc2)oc2cc(O)cc(O)c12` [Kaempferol-3-O-glucoside, Kaempferol 3-O-β-glucopyranoside], the IC50 (5-LOX; read-out: 5-LOX inhibitory potential IC50) is reported as 6.28 ± 0.16 µM.

`O=c1cc(-c2ccc(O)c(O)c2)oc2cc(O)cc(O)c12` [Luteolin] gave an IC50 (COX-2 enzyme; read-out: COX-2 inhibitory activity IC50) of 12.04 ± 0.08 µM.

In the case of `COc1ccc2c(c1)[C@]13CCCC[C@@H]1[C@H](C2)N(C)CC3` [dextromethorphan, Dextromethorphan], the “neuronal degeneration and gliosis, cerebral cortex” value [1] is reported as “mild”, the “neuronal degeneration and gliosis, hippocampus” value [1] is reported as “mild” and the “TNF-α expression in cerebral cortex (immunohistochemistry)” value [2] is reported as “weak”.
